# Measured values as given in PMC9863297, “Intermolecular Interactions of Edaravone in Aqueous Solutions of Ethaline and Glyceline Inferred from Experiments and Quantum Chemistry Computations” (Molecules, 2023).
# Like-named read-outs stand apart in the source and are kept apart here.
# Assay: Edaravone solubility, slurry/shake-flask method with spectrophotometric determination at 243 nm
# Assay type: physicochemical
# Details: for solubility at 24 h: read-out: cE solubility concentration; for volume of saturated solution containing the recommended 60 mg: solubility at 298.15 K
# Method: The first step in obtaining a calibration curve was the preparation of a stock solution of edaravone with a concentration of 2.3 mg/mL. This initial solution was successfully diluted in 10 mL volumetric flasks with methanol and the obtained solutions with decreasing concentrations were measured spectrophotometrically. […] Three separate curves were obtained, and the final curve resulted from averaging. […] The limits of detection (LOD) and quantification (LOQ) were calculated as 5.899∙10^−4 mg/mL and 1.770∙10^−3 mg/mL, respectively.
# All of the studied deep eutectic solvents included choline chloride, while the second constituent was either glycerol or ethylene glycol. In order to prepare a DES formulation, choline chloride was mixed with the second compound in different molar ratios in sealed test tubes and placed in a water bath at 363.15 K until the formation of a uniform solution. The obtained DES were either used in their neat form or water was added to them in different proportions in order to form binary systems.
# During the next stage, edaravone was added in excess amounts to the test tubes containing both neat DES and binary mixtures, which enabled us to obtain its saturated solutions. Samples prepared in such a manner were placed in an Orbital Shaker Incubator ES-20/60 from Biosan (Riga, Latvia) and incubated for 24 h at different temperatures, namely 298.15 K, 303.15 K, 308.15 K and 313.15 K. The temperature adjustment accuracy was 0.1 K and its variability in a 24 h cycle was ±0.5 K. Apart from heating, all of the samples were mixed at 60 rev/min. The increased viscosity and density of DES systems required the samples to be centrifuged at 1000 rev/min for 5 min with the use of EBA 20 centrifuge from Hettich (Tuttlingen, Germany) enabling the undissolved precipitate to remain on the bottom of the test tubes. Next, the samples were filtered using a syringe equipped with a PTFE syringe filer with 0.22 µm pore size. In order to avoid precipitation, the test tubes, syringes and filters were initially heated at a temperature equal to the one of the handled samples. Finally, small amounts of the obtained filtrate were transferred to test tubes filled with methanol and the diluted samples were measured spectrophotometrically. Additionally, for the determination of the mole fractions of edaravone, the density of the samples was measured by weighing a fixed volume of the solution in 10 mL volumetric flasks.
# For determining the solubility of edaravone in the studied systems, the samples prepared, as described above, were measured spectrophotometrically using an A360 spectrophotometer from AOE Instruments (Shanghai, China). The spectra were recorded in the 190 nm to 500 nm wavelength range and 1 nm resolution. Methanol was used for the initial calibration of the spectrophotometer and for the dilution of the measured samples, which was conducted in order for the absorbance values to remain below 2.5. The absorbance values at 243 nm were taken into account and based on the calibration curve prepared earlier, the concentration of edaravone in the samples was determined, followed by its mole fractions. The values were averaged from three separate measurements.
structure (smiles),measurement,setting,value
"CC1=NN(c2ccccc2)C(=O)C1 [edaravone, 5-methyl-2-phenyl-4H-pyrazol-3-one]",xE mole fraction solubility,"neat DES choline chloride + glycerol (GLE) 1:2 molar ratio (x*GLE = 1.0), 303.15 K",1606.43 (±50.52) mole fraction ∙10^4
same,xE mole fraction solubility,"neat DES choline chloride + glycerol (GLE) 1:2 molar ratio (x*GLE = 1.0), 308.15 K",2151.57 (±64.56) mole fraction ∙10^4
same,xE mole fraction solubility,"neat DES choline chloride + glycerol (GLE) 1:2 molar ratio (x*GLE = 1.0), 313.15 K",2991.42 (±64.1) mole fraction ∙10^4
same,xE mole fraction solubility,"neat DES choline chloride + glycerol (GLE) 1:4 molar ratio, 298.15 K",926.44 (±23.62) mole fraction ∙10^4
same,xE mole fraction solubility,"neat DES choline chloride + glycerol (GLE) 1:4 molar ratio, 303.15 K",1321.28 (±36.17) mole fraction ∙10^4
same,xE mole fraction solubility,"neat DES choline chloride + glycerol (GLE) 1:4 molar ratio, 308.15 K",1861.97 (±40.45) mole fraction ∙10^4
same,xE mole fraction solubility,"neat DES choline chloride + glycerol (GLE) 1:4 molar ratio, 313.15 K",2739.72 (±65.05) mole fraction ∙10^4
same,solubility at 24 h,"neat deep eutectic solvent, 25 °C, organic solvent or mixture, thermodynamic from solid, neat DES choline chloride + ethylene glycol (ETA) 1:1 molar ratio, 298.15 K",190 mg/mL
same,solubility at 24 h,"neat deep eutectic solvent, 25 °C, organic solvent or mixture, thermodynamic from solid, neat DES choline chloride + ethylene glycol (ETA) 1:2 molar ratio (x*ETA = 1.0), 298.15 K",303 mg/mL
same,solubility at 24 h,"neat deep eutectic solvent, 25 °C, organic solvent or mixture, thermodynamic from solid, neat DES choline chloride + ethylene glycol (ETA) 1:4 molar ratio, 298.15 K",280 mg/mL
same,solubility at 24 h,"neat deep eutectic solvent, 25 °C, organic solvent or mixture, thermodynamic from solid, neat DES choline chloride + glycerol (GLE) 1:1 molar ratio, 298.15 K",138 mg/mL
same,solubility at 24 h,"neat deep eutectic solvent, 30 °C, organic solvent or mixture, thermodynamic from solid, neat DES choline chloride + ethylene glycol (ETA) 1:1 molar ratio, 303.15 K",252 mg/mL
same,solubility at 24 h,"neat deep eutectic solvent, 30 °C, organic solvent or mixture, thermodynamic from solid, neat DES choline chloride + ethylene glycol (ETA) 1:2 molar ratio (x*ETA = 1.0), 303.15 K",392 mg/mL
same,solubility at 24 h,"neat deep eutectic solvent, 30 °C, organic solvent or mixture, thermodynamic from solid, neat DES choline chloride + ethylene glycol (ETA) 1:4 molar ratio, 303.15 K",347 mg/mL
same,solubility at 24 h,"neat deep eutectic solvent, 35 °C, organic solvent or mixture, thermodynamic from solid, neat DES choline chloride + ethylene glycol (ETA) 1:1 molar ratio, 308.15 K",360 mg/mL
same,solubility at 24 h,"neat deep eutectic solvent, 35 °C, organic solvent or mixture, thermodynamic from solid, neat DES choline chloride + ethylene glycol (ETA) 1:2 molar ratio (x*ETA = 1.0), 308.15 K",499 mg/mL
same,solubility at 24 h,"neat deep eutectic solvent, 35 °C, organic solvent or mixture, thermodynamic from solid, neat DES choline chloride + ethylene glycol (ETA) 1:4 molar ratio, 308.15 K",467 mg/mL
same,solubility at 24 h,"neat deep eutectic solvent, 40 °C, organic solvent or mixture, thermodynamic from solid, neat DES choline chloride + ethylene glycol (ETA) 1:1 molar ratio, 313.15 K",484 mg/mL
same,solubility at 24 h,"neat deep eutectic solvent, 40 °C, organic solvent or mixture, thermodynamic from solid, neat DES choline chloride + ethylene glycol (ETA) 1:2 molar ratio (x*ETA = 1.0), 313.15 K",593 mg/mL
same,solubility at 24 h,"neat deep eutectic solvent, 40 °C, organic solvent or mixture, thermodynamic from solid, neat DES choline chloride + ethylene glycol (ETA) 1:4 molar ratio, 313.15 K",602 mg/mL
same,xE mole fraction solubility,"neat water (x*DES = 0.0), 298.15 K",1.73(±0.01) mole fraction ∙10^4
same,xE mole fraction solubility,"neat water (x*DES = 0.0), 303.15 K",1.78(±0.01) mole fraction ∙10^4
same,xE mole fraction solubility,"neat water (x*DES = 0.0), 308.15 K",1.84(±0.02) mole fraction ∙10^4
same,xE mole fraction solubility,"neat water (x*DES = 0.0), 313.15 K",1.93(±0.01) mole fraction ∙10^4
same,"mole fraction solubility ratio, ethylene glycol system vs glycerol system","optimal 1:2 composition, average over temperatures",1.34 times
same,volume of saturated solution containing the recommended 60 mg,optimal aqueous composition ETA,0.14 mL
same,volume of saturated solution containing the recommended 60 mg,optimal aqueous composition GLE,0.18 mL
same,solubility increase in optimal binary composition compared to neat DES,"systems with ethylene glycol, x*DES = 0.6, average",17%
same,xE mole fraction solubility,"water + ETA (ChCl:EG 1:2), x*ETA = 0.2, 298.15 K",454.10(±5.48) mole fraction ∙10^4
same,xE mole fraction solubility,"water + ETA (ChCl:EG 1:2), x*ETA = 0.2, 303.15 K",574.18(±8.89) mole fraction ∙10^4
same,xE mole fraction solubility,"water + ETA (ChCl:EG 1:2), x*ETA = 0.2, 308.15 K",742.26(±18.45) mole fraction ∙10^4
same,xE mole fraction solubility,"water + ETA (ChCl:EG 1:2), x*ETA = 0.2, 313.15 K",890.33(±10.84) mole fraction ∙10^4
same,xE mole fraction solubility,"water + ETA (ChCl:EG 1:2), x*ETA = 0.4, 298.15 K",1353.93(±5.00) mole fraction ∙10^4
same,xE mole fraction solubility,"water + ETA (ChCl:EG 1:2), x*ETA = 0.4, 303.15 K",1819.02(±41.45) mole fraction ∙10^4
same,xE mole fraction solubility,"water + ETA (ChCl:EG 1:2), x*ETA = 0.4, 308.15 K",2386.29(±27.09) mole fraction ∙10^4
same,xE mole fraction solubility,"water + ETA (ChCl:EG 1:2), x*ETA = 0.4, 313.15 K",2954.32(±49.04) mole fraction ∙10^4
same,xE mole fraction solubility,"water + ETA (ChCl:EG 1:2), x*ETA = 0.5, 298.15 K",1754.56(±31.02) mole fraction ∙10^4
same,xE mole fraction solubility,"water + ETA (ChCl:EG 1:2), x*ETA = 0.5, 303.15 K",2316.25(±38.27) mole fraction ∙10^4
same,xE mole fraction solubility,"water + ETA (ChCl:EG 1:2), x*ETA = 0.5, 308.15 K",3073.71(±53.04) mole fraction ∙10^4
same,xE mole fraction solubility,"water + ETA (ChCl:EG 1:2), x*ETA = 0.5, 313.15 K",3822.75(±61.93) mole fraction ∙10^4
same,xE mole fraction solubility,"water + ETA (ChCl:EG 1:2), x*ETA = 0.6, 298.15 K",1934.93(±34.18) mole fraction ∙10^4
same,xE mole fraction solubility,"water + ETA (ChCl:EG 1:2), x*ETA = 0.6, 303.15 K",2552.36(±52.56) mole fraction ∙10^4
same,xE mole fraction solubility,"water + ETA (ChCl:EG 1:2), x*ETA = 0.6, 308.15 K",3306.79(±48.29) mole fraction ∙10^4
same,xE mole fraction solubility,"water + ETA (ChCl:EG 1:2), x*ETA = 0.6, 313.15 K",3982.72(±70.26) mole fraction ∙10^4
same,xE mole fraction solubility,"water + ETA (ChCl:EG 1:2), x*ETA = 0.8, 298.15 K",1713.96(±31.15) mole fraction ∙10^4
same,xE mole fraction solubility,"water + ETA (ChCl:EG 1:2), x*ETA = 0.8, 303.15 K",2241.64(±42.78) mole fraction ∙10^4
same,xE mole fraction solubility,"water + ETA (ChCl:EG 1:2), x*ETA = 0.8, 308.15 K",2989.20(±42.33) mole fraction ∙10^4
same,xE mole fraction solubility,"water + ETA (ChCl:EG 1:2), x*ETA = 0.8, 313.15 K",3720.80(±28.54) mole fraction ∙10^4
same,xE mole fraction solubility,"water + GLE (ChCl:GL 1:2), x*GLE = 0.2, 298.15 K",235.51(±9.67) mole fraction ∙10^4
same,xE mole fraction solubility,"water + GLE (ChCl:GL 1:2), x*GLE = 0.2, 303.15 K",309.2(±4.30) mole fraction ∙10^4
same,xE mole fraction solubility,"water + GLE (ChCl:GL 1:2), x*GLE = 0.2, 308.15 K",435.07(±4.04) mole fraction ∙10^4
same,xE mole fraction solubility,"water + GLE (ChCl:GL 1:2), x*GLE = 0.2, 313.15 K",564.61(±7.05) mole fraction ∙10^4
same,xE mole fraction solubility,"water + GLE (ChCl:GL 1:2), x*GLE = 0.4, 298.15 K",743.88(±5.92) mole fraction ∙10^4
same,xE mole fraction solubility,"water + GLE (ChCl:GL 1:2), x*GLE = 0.4, 303.15 K",1116.64(±2.70) mole fraction ∙10^4
same,xE mole fraction solubility,"water + GLE (ChCl:GL 1:2), x*GLE = 0.4, 308.15 K",1444.07(±14.86) mole fraction ∙10^4
same,xE mole fraction solubility,"water + GLE (ChCl:GL 1:2), x*GLE = 0.4, 313.15 K",2014.09(±17.34) mole fraction ∙10^4
same,xE mole fraction solubility,"water + GLE (ChCl:GL 1:2), x*GLE = 0.5, 298.15 K",1121.47(±10.85) mole fraction ∙10^4
same,xE mole fraction solubility,"water + GLE (ChCl:GL 1:2), x*GLE = 0.5, 303.15 K",1673.69(±20.61) mole fraction ∙10^4
same,xE mole fraction solubility,"water + GLE (ChCl:GL 1:2), x*GLE = 0.5, 308.15 K",2236.41(±28.00) mole fraction ∙10^4
same,xE mole fraction solubility,"water + GLE (ChCl:GL 1:2), x*GLE = 0.5, 313.15 K",3065.17(±55.82) mole fraction ∙10^4
same,xE mole fraction solubility,"water + GLE (ChCl:GL 1:2), x*GLE = 0.6, 298.15 K",1450.22(±11.26) mole fraction ∙10^4
same,xE mole fraction solubility,"water + GLE (ChCl:GL 1:2), x*GLE = 0.6, 303.15 K",2089.77(±58.10) mole fraction ∙10^4
same,xE mole fraction solubility,"water + GLE (ChCl:GL 1:2), x*GLE = 0.6, 308.15 K",2723.73(±61.99) mole fraction ∙10^4
same,xE mole fraction solubility,"water + GLE (ChCl:GL 1:2), x*GLE = 0.6, 313.15 K",3567.08(±42.51) mole fraction ∙10^4
same,xE mole fraction solubility,"water + GLE (ChCl:GL 1:2), x*GLE = 0.8, 298.15 K",1305.70(±26.15) mole fraction ∙10^4
same,xE mole fraction solubility,"water + GLE (ChCl:GL 1:2), x*GLE = 0.8, 303.15 K",1852.98(±39.43) mole fraction ∙10^4
same,xE mole fraction solubility,"water + GLE (ChCl:GL 1:2), x*GLE = 0.8, 308.15 K",2525.56(±24.65) mole fraction ∙10^4
same,xE mole fraction solubility,"water + GLE (ChCl:GL 1:2), x*GLE = 0.8, 313.15 K",3420.95(±31.16) mole fraction ∙10^4
same,solubility at 24 h,"water, neat water (x*DES = 0.0), 298.15 K",1.72 mg/mL
same,solubility at 24 h,"water, neat water (x*DES = 0.0), 303.15 K",1.79 mg/mL
same,solubility at 24 h,"water, neat water (x*DES = 0.0), 308.15 K",1.87 mg/mL
same,solubility at 24 h,"water, neat water (x*DES = 0.0), 313.15 K",1.96 mg/mL
